Assay results: the supplement of paper PMC13380429

Experiments:
Details in all cases: 72 h
HepG2 [1] = assay: cell viability relative to DMSO; higher = less toxic
Calu-3 [2] = assay: as above
Caco-2 [3] = assay: as above
U2OS [4] = assay: as above
Vero E6 [5] = assay: as above
HepG2 [6] = assay: relative viability EC50 (midpoint between 100% and the lowest measured viability); higher = less toxic
Calu-3 [7] = assay: as above
Caco-2 [8] = assay: as above
U2OS [9] = assay: as above
Vero E6 [10] = assay: as above
HepG2 [11] = assay: drug sensitivity score (DSS) for viability; higher = more toxic; extreme values may be limits of the assay
Calu-3 [12] = assay: as above
Caco-2 [13] = assay: as above
U2OS [14] = assay: as above
Vero E6 [15] = assay: as above

Row | SMILES | cell viability (HepG2 [1]; 1 nM) | cell viability (HepG2 [1]; 10 nM) | cell viability (HepG2 [1]; 100 nM) | cell viability (HepG2 [1]; 1000 nM) | cell viability (HepG2 [1]; 10000 nM) | cell viability (Calu-3 [2]; 1 nM) | cell viability (Calu-3 [2]; 10 nM) | cell viability (Calu-3 [2]; 100 nM) | cell viability (Calu-3 [2]; 1000 nM) | cell viability (Calu-3 [2]; 10000 nM) | cell viability (Caco-2 [3]; 1 nM) | cell viability (Caco-2 [3]; 10 nM) | cell viability (Caco-2 [3]; 100 nM) | cell viability (Caco-2 [3]; 1000 nM) | cell viability (Caco-2 [3]; 10000 nM) | cell viability (U2OS [4]; 1 nM) | cell viability (U2OS [4]; 10 nM) | cell viability (U2OS [4]; 100 nM) | cell viability (U2OS [4]; 1000 nM) | cell viability (U2OS [4]; 10000 nM) | cell viability (Vero E6 [5]; 1 nM) | cell viability (Vero E6 [5]; 10 nM) | cell viability (Vero E6 [5]; 100 nM) | cell viability (Vero E6 [5]; 1000 nM) | cell viability (Vero E6 [5]; 10000 nM) | relative viability EC50 (HepG2 [6]) | relative viability EC50 (Calu-3 [7]) | relative viability EC50 (Caco-2 [8]) | relative viability EC50 (U2OS [9]) | relative viability EC50 (Vero E6 [10]) | drug sensitivity score (HepG2 [11]) | drug sensitivity score (Calu-3 [12]) | drug sensitivity score (Caco-2 [13]) | drug sensitivity score (U2OS [14]) | drug sensitivity score (Vero E6 [15])
1 | CC(C)Oc1ccc2c(=O)c3cc(C(=O)O)ccc3oc2c1 [AH6809] | 96.6% | 97.1% | 91.5% | 93.6% | 94.5% | 112% | 111% | 96.9% | 103% | 104% | 97.6% | 100% | 93.2% | 93.6% | 85.2% | 104% | 105% | 107% | 102% | 95% | 96.5% | 102% | 95.3% | 89.8% | 98.9% | > 10 µM | > 10 µM | > 10 µM | > 10 µM | > 10 µM | 0 | 0 | 0.3 | 0 | 0
2 | CN(CC[C@@H](Oc1ccc(-c2ccccc2)cc1)c1ccc(F)cc1)CC(=O)O [ALX-5407] | 102% | 108% | 92.7% | 95.7% | 96.7% | 103% | 85.9% | 98.6% | 98.3% | 104% | 105% | 98.9% | 102% | 94.8% | 95.6% | 98.3% | 96.6% | 99% | 93.8% | 98.7% | 101% | 99.1% | 97.7% | 100% | 96.4% | > 10 µM | > 10 µM | > 10 µM | > 10 µM | > 10 µM | 0 | 0 | 0 | 0 | 0
3 | CC(C)(C)c1ccc(S(=O)(=O)/C=C/C#N)cc1 [BAY-11-7085] | 96.7% | 100% | 98.7% | 85.2% | -0.4% | 105% | 103% | 96% | 97% | 49.8% | 101% | 82.2% | 83.6% | 91.8% | 37.8% | 101% | 99% | 102% | 89.1% | -0.4% | 92.7% | 95.9% | 91.8% | 90.3% | -0.3% | 2 µM | 2.69 µM | 2.1 µM | 2.26 µM | 2.35 µM | 8 | 3.1 | 4.8 | 7.4 | 7.1
